Assay [1] concerns IRF pathway, THP1-Dual™ cells. The assay is described as follows: STING reporter assay in THP1-Dual cells, IRF pathway (Lucia luciferase, QUANTI-Luc). Format: cell-based, human. The settings on record: THP1-Dual cells, 10% human plasma, 20 hours, Lucia luciferase, 100% activation = 100 μM cGAMP, read-out: IRF (EC50 μM). In short, it runs like this: (§1)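 THP-1-derived dual-reporter cells treated with serially diluted compounds (final top concentration 100 μM) for 20 h at 37° C. NF-κB read as SEAP via QUANTI-Blue at OD620; IRF read as Lucia luminescence via QUANTI-Luc after 5 min. 100% activation set by 100 μM cGAMP, baseline by DMSO.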
(In general: In a reporter assay the amount or activity of a reporter protein is the signal.)

For assay [2], the system named is NF-κB pathway, THP1-Dual™ cells. The assay can be described thus: STING reporter assay in THP1-Dual cells, NF-κB pathway (SEAP, QUANTI-Blue). Format: cell-based, human. The settings on record: THP1-Dual cells, 10% human plasma, 20 hours, SEAP, 100% activation = 100 μM cGAMP, read-out: NFkB (EC50 μM). In short, it runs like this:
as §1

Read-outs that look alike come from different tables or passages of the source.

For the compound `CC(OC(=O)c1cc(F)cc2cc(Cn3cnc4ccncc4c3=O)oc12)C(F)(F)F` (stereo not shown) [EXAMPLE 365, 1,1,1-Trifluoropropan-2-yl 5-fluoro-2-((4-oxopyrido[4,3-d]pyrimidin-3(4H)-yl)methyl)benzofuran-7-carboxylate], the 50% effective concentration (EC50) (in general, the concentration that produces a half-maximal response) in assay [1] came to 7.5 µM; in assay [2], 4.4 µM.

With `COC(=O)c1cc(F)cc2cc(CN3Cc4ccncc4C3=O)oc12` [EXAMPLE 43, Methyl 5-fluoro-2-((3-oxo-1,3-dihydro-2H-pyrrolo[3,4-c]pyridin-2-yl)methyl)benzofuran-7-carboxylate], the concentration for a half-maximal effect (EC50) in assay [1] (Homo sapiens, THP1-Dual, 20 h) was 19 µM; in assay [2] (Homo sapiens, THP1-Dual, 20 h), 24 µM.

As for `COC(=O)c1cccc2cc(CN3Cc4c(F)cncc4C3=O)oc12` [EXAMPLE 3, Methyl 2-((7-fluoro-3-oxo-1,3-dihydro-2H-pyrrolo[3,4-c]pyridin-2-yl)methyl)benzofuran-7-carboxylate], the EC50 in assay [1] (Homo sapiens, THP1-Dual, 20 h) was determined as 51 µM; in assay [2] (Homo sapiens, THP1-Dual, 20 h) it was 92 µM.

Regarding `COC(=O)c1cc(Cl)cc2cc(CNC(=O)c3cncc(C)n3)oc12` [Example 59, Methyl 5-chloro-2-((6-methylpyrazine-2-carboxamido)methyl) benzofuran-7-carboxylate], the concentration for a half-maximal effect (EC50) in assay [1] was determined as 2.4 µM; in assay [2], 2.6 µM.

Turning to `CC(OC(=O)c1cc(F)cc2cc(Cn3cnc4ccncc4c3=O)oc12)C(F)(F)F` (stereo not shown) [EXAMPLE 364, 1,1,1-Trifluoropropan-2-yl 5-fluoro-2-((4-oxopyrido[4,3-d]pyrimidin-3(4H)-yl)methyl)benzofuran-7-carboxylate], the results for the EC50 in assay [1] and in assay [2] were 35 µM and 21 µM, respectively.

Turning to `O=C(OCCO)c1cccc2cc(CN3CCc4ccncc4C3=O)oc12` [EXAMPLE 211, 2-Hydroxyethyl 2-((1-oxo-3,4-dihydro-2,7-naphthyridin-2(1H)-yl)methyl)benzofuran-7-carboxylate], the half-maximal effective concentration (EC50) was 23 µM in assay [1] (Homo sapiens, THP1-Dual, 20 h) and 31 µM in assay [2] (Homo sapiens, THP1-Dual, 20 h).

As for `C[C@H](NC(=O)c1cnn2cccnc12)c1oc2c(C(=O)O[C@H](C)C(F)(F)F)cc(Cl)cc2c1Cl` [EXAMPLE 296, (R)-1,1,1-Trifluoropropan-2-yl 3,5-dichloro-2-((S)-1-(pyrazolo[1,5-a]pyrimidine-3-carboxamido)ethyl)benzofuran-7-carboxylate], the 50% effective concentration (EC50) amounted to 5.7 µM in assay [1] (Homo sapiens, THP1-Dual, 20 h) and 4.6 µM in assay [2] (Homo sapiens, THP1-Dual, 20 h).

Consider `O=C(OCCCCO)c1cc(Cl)cc2cc(CNC(=O)c3cnn4cccnc34)oc12` [EXAMPLE 250, 4-Hydroxybutyl 5-chloro-2-((pyrazolo[1,5-a]pyrimidine-3-carboxamido)methyl)benzofuran-7-carboxylate], for which the EC50 was determined as 1.2 µM in assay [1] (Homo sapiens, THP1-Dual, 20 h) and 0.62 µM in assay [2] (Homo sapiens, THP1-Dual, 20 h).

Regarding `O=C(OCC(F)(F)F)c1cc(F)cc2cc(CNC(=O)c3cnc4cccnn34)oc12` [EXAMPLE 230, 2,2,2-Trifluoroethyl 5-fluoro-2-((imidazo[1,2-b]pyridazine-3-carboxamido)methyl)benzofuran-7-carboxylate], the EC50 was determined as 0.93 µM in assay [1] (Homo sapiens, THP1-Dual, 20 h) and 0.95 µM in assay [2] (Homo sapiens, THP1-Dual, 20 h).

With `COC(=O)c1cc(OC)cc2cc(CNC(=O)c3cnn4cccnc34)oc12` [EXAMPLE 102, Methyl 5-methoxy-2-((pyrazolo[1,5-a]pyrimidine-3-carboxamido)methyl)benzofuran-7-carboxylate], the EC50 in assay [1] (Homo sapiens, THP1-Dual, 20 h) stood at 2.5 µM; in assay [2] (Homo sapiens, THP1-Dual, 20 h) it was 3 µM.

Consider `O=C(OCCN1CCOCC1)c1cc(Cl)cc2cc(CNC(=O)c3cnn4cccnc34)oc12` [EXAMPLE 255, 2-Morpholinoethyl 5-chloro-2-((pyrazolo[1,5-a]pyrimidine-3-carboxamido)methyl)benzofuran-7-carboxylate], for which the EC50 came to 13 µM in assay [1] (Homo sapiens, THP1-Dual, 20 h) and 19 µM in assay [2] (Homo sapiens, THP1-Dual, 20 h).

Consider `COC(=O)c1cc(Br)cc2cc(CN3CCc4ccncc4C3=O)oc12` [Example 81, Methyl 5-bromo-2-((1-oxo-3,4-dihydro-2,7-naphthyridin-2(1H)-yl)methyl)benzofuran-7-carboxylate], for which the EC50 in assay [1] (Homo sapiens, THP1-Dual, 20 h) is 16 µM; in assay [2] (Homo sapiens, THP1-Dual, 20 h), 22 µM.

`CC(=O)OCOC(=O)c1cc(Cl)cc2cc(CNC(=O)c3cnn4cccnc34)oc12` [EXAMPLE 259, Acetoxymethyl 5-chloro-2-((13yrazole[1,5-a]pyrimidine-3-carboxamido)methyl)benzofuran-7-carboxylate]: the EC50 in assay [1] (Homo sapiens, THP1-Dual, 20 h) is 2.3 µM; in assay [2] (Homo sapiens, THP1-Dual, 20 h) it was 2.2 µM.

For the compound `COC(=O)c1ccc(C)c2cc(CNC(=O)c3cnn4cccnc34)oc12` [EXAMPLE 31, Methyl 4-methyl-2-((pyrazolo[1,5-a]pyrimidine-3-carboxamido)methyl)benzofuran-7-carboxylate], the half-maximal effective concentration (EC50) in assay [1] (Homo sapiens, THP1-Dual, 20 h) was 1.1 µM; in assay [2] (Homo sapiens, THP1-Dual, 20 h), 1.6 µM.

Consider `COC(=O)c1cc(C)cc2c(Cl)c(CNC(=O)c3cnn4cccnc34)oc12` [EXAMPLE 117, Methyl 3-chloro-5-methyl-2-((pyrazolo[1,5-a]pyrimidine-3-carboxamido)methyl)benzofuran-7-carboxylate], for which the EC50 in assay [1] (Homo sapiens, THP1-Dual, 20 h) is 0.2 µM; in assay [2] (Homo sapiens, THP1-Dual, 20 h), 0.28 µM.

On to `N#CC1CC(OC(=O)c2cc(Cl)cc3cc(CNC(=O)c4cnn5cccnc45)oc23)C1` (stereo not shown) [EXAMPLE 241, 3-Cyanocyclobutyl 5-chloro-2-((pyrazolo[1,5-a]pyrimidine-3-carboxamido)methyl)benzofuran-7-carboxylate], for which the EC50 in assay [1] (Homo sapiens, THP1-Dual, 20 h) came out at 2.3 µM; in assay [2] (Homo sapiens, THP1-Dual, 20 h) it was 2.3 µM.

As for `CCOC(=O)c1c(C)ccc2cc(CNC(=O)c3cnn4cccnc34)oc12` [EXAMPLE 379, Ethyl 6-methyl-2-((pyrazolo[1,5-a]pyrimidine-3-carboxamido)methyl)benzofuran-7-carboxylate], the concentration for a half-maximal effect (EC50) in assay [1] (Homo sapiens, THP1-Dual, 20 h) worked out at 13 µM; in assay [2] (Homo sapiens, THP1-Dual, 20 h) it was 19 µM.

Consider `O=C(OCC(F)(F)F)c1cc(C(F)(F)F)cc2cc(CNC(=O)c3cnn4cccnc34)oc12` [EXAMPLE 283, 2,2,2-Trifluoroethyl 2-((pyrazolo[1,5-a]pyrimidine-3-carboxamido)methyl)-5-(trifluoromethyl)benzofuran-7-carboxylate], for which the concentration for a half-maximal effect (EC50) in assay [1] (Homo sapiens, THP1-Dual, 20 h) worked out at 0.4 µM; in assay [2] (Homo sapiens, THP1-Dual, 20 h), 0.52 µM.

`CC(C)OC(=O)c1cc(Cl)cc2cc(CNC(=O)c3cnn4cccnc34)oc12` [EXAMPLE 240, Isopropyl 5-chloro-2-((pyrazolo[1,5-a]pyrimidine-3-carboxamido)methyl)benzofuran-7-carboxylate]: the EC50 worked out at 0.78 µM in assay [1] (Homo sapiens, THP1-Dual, 20 h) and 0.61 µM in assay [2] (Homo sapiens, THP1-Dual, 20 h).

In the case of `COC(=O)c1cccc2cc(CNC(=O)c3cnn4ccc(C)nc34)oc12` [EXAMPLE 10, Methyl 2-((5-methylpyrazolo[1,5-a]pyrimidine-3-carboxamido)methyl) benzofuran-7-carboxylate], the EC50 in assay [1] came to 7.5 µM; in assay [2] it was 7.6 µM.

On to `CC(NC(=O)c1cnn2cccnc12)c1cc2cc(F)cc(C(=O)O[C@@H](C)C(F)(F)F)c2o1` (stereo partly drawn) [EXAMPLE 305, (S)-1,1,1-Trifluoropropan-2-yl 5-fluoro-2-(1-(pyrazolo[1,5-a]pyrimidine-3-carboxamido)ethyl)benzofuran-7-carboxylate], for which the concentration giving a half-maximal response (EC50) in assay [1] (Homo sapiens, THP1-Dual, 20 h) stood at 5 µM; in assay [2] (Homo sapiens, THP1-Dual, 20 h), 3.9 µM.

In the case of `COC(=O)c1cc(F)cc2cc(CNC(=O)c3cnn4ccc(OC)nc34)oc12` [EXAMPLE 40, Methyl 5-fluoro-2-((5-methoxypyrazolo[1,5-a]pyrimidine-3-carboxamido)methyl)benzofuran-7-carboxylate], the concentration giving a half-maximal response (EC50) in assay [1] (Homo sapiens, THP1-Dual, 20 h) was 2.1 µM; in assay [2] (Homo sapiens, THP1-Dual, 20 h) it was 3.2 µM.

Turning to `COC(=O)c1cc(C)cc2cc(CNC(=O)c3c(N)nn4cccnc34)oc12` [Example 93, Methyl 2-((2-aminopyrazolo[1,5-a]pyrimidine-3-carboxamido)methyl)-5-methylbenzofuran-7-carboxylate], the EC50 was determined as 3.7 µM in assay [1] (Homo sapiens, THP1-Dual, 20 h) and 6 µM in assay [2] (Homo sapiens, THP1-Dual, 20 h).

Regarding `COC(=O)Cc1cccc2cc(CNC(=O)c3cnn4cccnc34)oc12` [EXAMPLE 20, Methyl 2-(2-((pyrazolo[1,5-a]pyrimidine-3-carboxamido)methyl)benzofuran-7-yl)acetate], the concentration giving a half-maximal response (EC50) in assay [1] (Homo sapiens, THP1-Dual, 20 h) was 48 µM; in assay [2] (Homo sapiens, THP1-Dual, 20 h), 49 µM.

As to `COC(=O)c1cccc2c(Cl)c(CN3CCc4ccncc4C3=O)oc12` [EXAMPLE 21, Methyl 3-chloro-2-((1-oxo-3,4-dihydro-2,7-naphthyridin-2(1H)-yl)methyl)benzofuran-7-carboxylate], the EC50 in assay [1] (Homo sapiens, THP1-Dual, 20 h) stood at 2.9 µM; in assay [2] (Homo sapiens, THP1-Dual, 20 h), 3.1 µM.

In the case of `Cc1cc(C(=O)OC2CC(F)(F)C2)c2oc(CNC(=O)c3cnn4cccnc34)c(Cl)c2c1` [EXAMPLE 303, 3,3-Difluorocyclobutyl 3-chloro-5-methyl-2-((pyrazolo[1,5-a]pyrimidine-3-carboxamido)methyl)benzofuran-7-carboxylate], the 50% effective concentration (EC50) in assay [1] (Homo sapiens, THP1-Dual, 20 h) is 0.53 µM; in assay [2] (Homo sapiens, THP1-Dual, 20 h), 0.58 µM.

As for `COC(=O)c1cc(Cl)cc2cc(Cn3ccc4ncncc4c3=O)oc12` [Example 75, Methyl 5-chloro-2-((5-oxopyrido[4,3-d]pyrimidin-6(5H)-yl)methyl)benzofuran-7-carboxylate], the EC50 in assay [1] (Homo sapiens, THP1-Dual, 20 h) worked out at 22 µM; in assay [2] (Homo sapiens, THP1-Dual, 20 h), 37 µM.

Consider `CC(OC(=O)c1cc(Cl)cc2cc(CN3CCc4ccncc4C3=O)oc12)C(F)(F)F` (stereo not shown) [EXAMPLE 338, 1,1,1-Trifluoropropan-2-yl 5-chloro-2-((1-oxo-3,4-dihydro-2,7-naphthyridin-2(1H)-yl)methyl)benzofuran-7-carboxylate], for which the EC50 amounted to 46 µM in assay [1] and 48 µM in assay [2].

On to `COC(=O)c1ccc(Cl)c2cc(CNC(=O)c3cnn4cccnc34)oc12` [EXAMPLE 26, Methyl 4-chloro-2-((pyrazolo[1,5-a]pyrimidine-3-carboxamido)methyl)benzofuran-7-carboxylate], for which the EC50 in assay [1] (Homo sapiens, THP1-Dual, 20 h) was 0.63 µM; in assay [2] (Homo sapiens, THP1-Dual, 20 h), 0.67 µM.

For the origin of these results see patent US12673954B2 (BRISTOL-MYERS SQUIBB COMPANY, priority 2021, dated 2026).
